Tested on: HMG-CoA reductase
Experiment: HMG-CoA Reductase Inhibition Assay (in vitro, intrinsic inhibitory activity)
Format: biochemical
Conditions: IC50 of test compound compared with compactin determined simultaneously, compactin assigned a value of 100; tested as sodium salt of dihydroxy acid form; rat liver microsomal enzyme
Experimental: The intrinsic HMG-CoA reductase inhibition activity of the claimed compounds is measured in the in vitro protocol published in J. Med. Chem., 28, p. 347-358 (1985) and described below:
Male Holtzman Sprague-Dawley rats (225-250 g) were kept on reversed lighting and fed Purina rat chow containing 3% cholestryamine for 7 days preceding their sacrifice by CO2 asphyxiation. Livers were removed 6 hours into the dark cycle and used immediately to prepare microsomes. […]
Test compounds or compactin (after first being converted to the sodium salt of their dihydroxy acid form in situ by addition of 1N NaOH (1 equivalent) were added to the assay system in 10-μL volumes at multiconcentration levels. After a 40-minute incubation at 37° C. with shaking and exposure to air, the reaction was stopped by the addition of 0.4 mL of 8N HCl. After an additional 30-minute incubation period at 37° C. to ensure the complete lactonization of mevalonic acid to mevalonolactone, 0.2 ml of the mixture was added to an 0.5×5.0 cm column containing 100-200 mesh Bio-Rex 5, chloride form (Bio-Rad), wetted with distilled water, as described by Alberts et al [J. Proc. Natl. Acad. Sci. U.S.A., 1980, 77, 3957]. […] Five milliliters of Aquasol-2 (New England Nuclear) was added to each vial, and radioactivity was measured in a Packard Tri Carb Prias scintillation counter. […]

Row | SMILES | Relative Potency
1 | C[C@H]1C=C2C=C[C@H](C)[C@H](CC[C@@H]3C[C@@H](O)CC(=O)O3)[C@H]2[C@@H](OC(=O)C(C)(C)[S+]([O-])c2ccccc2)C1 (stereo partly drawn) [Example 2, 6(R)-[2-[8(S)-[2-Methyl-2-(phenylsulfinyl)propionyloxy]-2(S),6(R)-dimethyl-1,2,6,7,8,8a(R)-hexahydronaphthyl-1(S)]ethyl]-4(R)-hydroxy-3,4,5,,6-tetrahydro-2H-pyran-2-one] | 38
2 | C[C@H]1C=C2C=C[C@H](C)[C@H](CC[C@@H]3C[C@@H](O)CC(=O)O3)[C@H]2[C@@H](OC(=O)C(C)(C)Sc2ccccc2)C1 [Example 1, 6(R)-[2-[8(S)-[2-Methyl-2-(phenylthio)propionyloxy]-2(S),6(R)-dimethyl-1,2,6,7,8,8a(R)-hexahydronaphthyl-1(S)]ethyl]-4(R)-hydroxy-3,4,5,6-tetrahydro-2H-pyran-2-one] | 156

From US4864038A, “Antihypercholesterolemic compounds” (Merck & Co., Inc., priority 1988, dated 1989)
